In patent US9676714B2, “Sulfonylindole derivatives and method for preparing the same” (Daewoong Pharmaceutical Co., Ltd., priority 2013, dated 2017):
Structures can show the parent of a compound that is named as a salt.

Biological target: T1, proton pump (H+/K+-ATPase) (Sus scrofa, UniProt P19156)
T1 construct: Gastric vesicles were prepared from hog stomach via centrifugal separation; from tissue; host or cells: hog stomach (gastric vesicles, method of Rabon et al. 1988)
Test: Measurement of inhibitory effects on proton pump (H+/K+-ATPase) activities
Format: biochemical
Details: hog gastric vesicles, K+-specific H+/K+-ATPase activity, Tris-HCl buffer pH 7.4, 37° C. for 40 minutes, malachite green Pi readout
Method in brief: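 Hog gastric vesicles in 60 mmol/l Tris-HCl pH 7.4 with 0.5% DMSO were treated with compounds at room temperature; reaction was started with 10 μl of 10 mmol/l ATP stock. Released Pi was read at 570 nm, K+-specific activity taken as the ±K+ difference. IC50 from 4-parameter logistic fit.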

T1 sequence (P19156 whole entry): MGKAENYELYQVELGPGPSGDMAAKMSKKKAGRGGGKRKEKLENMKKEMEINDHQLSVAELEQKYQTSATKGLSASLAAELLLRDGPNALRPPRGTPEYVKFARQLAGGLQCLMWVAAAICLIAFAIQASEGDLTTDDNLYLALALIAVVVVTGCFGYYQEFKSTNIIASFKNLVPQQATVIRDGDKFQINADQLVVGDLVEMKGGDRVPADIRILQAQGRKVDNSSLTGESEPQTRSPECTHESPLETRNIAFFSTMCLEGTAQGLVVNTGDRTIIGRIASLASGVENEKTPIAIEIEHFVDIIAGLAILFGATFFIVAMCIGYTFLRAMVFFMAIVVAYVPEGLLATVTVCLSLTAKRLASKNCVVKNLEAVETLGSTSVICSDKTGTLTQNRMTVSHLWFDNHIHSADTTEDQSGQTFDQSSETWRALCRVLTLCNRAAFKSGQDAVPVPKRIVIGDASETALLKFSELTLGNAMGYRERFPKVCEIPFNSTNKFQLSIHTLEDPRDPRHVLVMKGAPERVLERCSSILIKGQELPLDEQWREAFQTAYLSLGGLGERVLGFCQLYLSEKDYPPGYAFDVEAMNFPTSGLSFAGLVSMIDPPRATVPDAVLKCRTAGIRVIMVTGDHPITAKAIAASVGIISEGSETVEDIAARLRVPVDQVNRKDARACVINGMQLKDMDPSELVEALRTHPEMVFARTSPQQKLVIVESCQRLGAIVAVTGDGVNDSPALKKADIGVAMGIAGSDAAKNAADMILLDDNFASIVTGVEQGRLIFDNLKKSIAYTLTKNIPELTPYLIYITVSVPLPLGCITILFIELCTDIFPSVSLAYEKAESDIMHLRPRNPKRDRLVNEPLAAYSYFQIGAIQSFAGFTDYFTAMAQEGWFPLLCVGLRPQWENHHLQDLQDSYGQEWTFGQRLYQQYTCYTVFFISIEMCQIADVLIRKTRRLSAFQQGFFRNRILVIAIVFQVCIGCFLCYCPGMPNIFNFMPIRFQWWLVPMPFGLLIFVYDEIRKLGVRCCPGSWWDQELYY
T1 sequence (P18434 whole entry partner): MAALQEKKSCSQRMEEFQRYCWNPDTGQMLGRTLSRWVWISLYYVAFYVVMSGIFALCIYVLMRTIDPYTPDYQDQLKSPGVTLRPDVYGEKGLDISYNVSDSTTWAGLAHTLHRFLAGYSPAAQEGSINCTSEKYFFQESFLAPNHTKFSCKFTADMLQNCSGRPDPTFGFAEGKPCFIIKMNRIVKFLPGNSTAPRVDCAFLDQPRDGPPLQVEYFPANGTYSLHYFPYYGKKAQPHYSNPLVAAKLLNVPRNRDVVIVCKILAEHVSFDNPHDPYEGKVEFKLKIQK

Row | SMILES | IC50
1 | CNCc1cn(S(=O)(=O)c2cccc(Cl)c2)c2cc(Nc3ccc(C)cc3Cl)ccc12 [Example 147, N-(2-chloro-4-methylphenyl)-1-((3-chlorophenyl)sulfonyl)-3-((methylamino)methyl)-1H-indol-6-amine hydrochloride] | 90 nM
2 | CNCc1cn(S(=O)(=O)c2cccnc2)c2cc(Nc3cc(Cl)cc(Cl)c3)ccc12 [Example 64, N-(3,5-dichlorophenyl)-3-((methylamino)methyl)-1-(pyridin-3-ylsulfonyl)-1H-indol-6-amine hydrochloride] | 1840 nM
3 | CNCc1cn(S(=O)(=O)c2cccc(F)c2)c2cc(Nc3ccc(C)cc3Cl)ccc12 [Example 137, N-(2-chloro-4-methylphenyl)-1-((3-fluorophenyl)sulfonyl)-3-((methylamino)methyl)-1H-indol-6-amine hydrochloride] | 60 nM
4 | CNCc1cn(S(=O)(=O)c2cccnc2)c2cc(-c3ccc(-c4ccccc4)cc3)ccc12 [Example 247, 1-(6-([1,1′-biphenyl]-4-yl)-1-(pyridin-3-ylsulfonyl)-1H-indol-3-yl)-N-methylmethanamine] | 4150 nM
5 | CNCc1cn(S(=O)(=O)c2ccc(OC(F)(F)F)cc2)c2cc(Nc3ccc(C)cc3Cl)ccc12 [Example 207, N-(2-chloro-4-methylphenyl)-3-((methylamino)methyl)-1-((4-(trifluoromethoxy)phenyl)sulfonyl)-1H-indol-6-amine hydrochloride] | 550 nM
6 | CNCc1cn(S(=O)(=O)c2ccc(-c3ccccc3)cc2)c2cc(Nc3ccc(C)cc3F)ccc12 [Example 232, 1-([1,1′-biphenyl]-4-ylsulfonyl)-N-(2-fluoro-4-methylphenyl)-3-((methylamino)methyl)-1H-indol-6-amine hydrochloride] | 2150 nM
7 | CNCc1cn(S(=O)(=O)c2cccnc2)c2cc(Nc3ncccc3C)ccc12 [Example 98, 3-((methylamino)methyl)-N-(3-methylpyridin-2-yl)-1-(pyridin-3-ylsulfonyl)-1H-indol-6-amine hydrochloride] | 1920 nM
8 | CNCc1cn(S(=O)(=O)c2cccc(OC)c2)c2cc(Nc3ccc(OC(F)(F)F)cc3C)ccc12 [Example 168, 1-((3-methoxyphenyl)sulfonyl)-N-(2-methyl-4-(trifluoromethoxy)phenyl)-3-((methylamino)methyl)-1H-indol-6-amine hydrochloride] | 790 nM
9 | CNCc1cn(S(=O)(=O)c2cccnc2)c2cc(Nc3ccc(F)cc3Cl)ccc12 [Example 25, N-(2-chloro-4-fluorophenyl)-3-((methylamino)methyl)-1-(pyridin-3-ylsulfonyl)-1H-indol-6-amine hydrochloride] | 160 nM
10 | CNCc1cn(S(=O)(=O)c2cccnc2)c2cc(Nc3ccc(C(F)(F)F)nc3C)ccc12 [Example 124, N-(2-methyl-6-(trifluoromethyl)pyridin-3-yl)-3-((methylamino)methyl)-1-(pyridin-3-ylsulfonyl)-1H-indol-6-amine hydrochloride] | 580 nM
11 | CNCc1cn(S(=O)(=O)c2cccc(OC)c2)c2cc(Nc3ccc(C)c(F)c3F)ccc12 [Example 170, N-(2,3-difluoro-4-methylphenyl)-1-((3-methoxyphenyl)sulfonyl)-3-((methylamino)methyl)-1H-indol-6-amine hydrochloride] | 260 nM
12 | CNCc1cn(S(=O)(=O)c2cccnc2)c2cc(Nc3c(F)cnc(F)c3F)ccc12 [Example 134, 3-((methylamino)methyl)-1-(pyridin-3-ylsulfonyl)-N-(2,3,5-trifluoropyridin-4-yl)-1H-indol-6-amine hydrochloride] | 2050 nM
13 | CNCc1cn(S(=O)(=O)c2cccnc2)c2cc(Nc3ncccc3C(F)(F)F)ccc12 [Example 101, 3-((methylamino)methyl)-1-(pyridin-3-ylsulfonyl)-N-(3-(trifluoromethyl)pyridin-2-yl)-1H-indol-6-amine hydrochloride] | 2200 nM
14 | CNCc1cn(S(=O)(=O)c2cccnc2)c2cc(Nc3c(F)cc(OC)cc3F)ccc12 [Example 88, N-(2,6-difluoro-4-methoxyphenyl)-3-((methylamino)methyl)-1-(pyridin-3-ylsulfonyl)-1H-indol-6-amine hydrochloride] | 430 nM
15 | CNCc1cn(S(=O)(=O)c2cccnc2)c2cc(-c3cnc(OC)nc3)ccc12 [Example 259, 1-(6-(2-methoxypyrimidin-5-yl)-1-(pyridin-3-ylsulfonyl)-1H-indol-3-yl)-N-methylmethanamine hydrochloride] | 40000 nM

More lines, now with the values ahead:

Row | IC50 | SMILES
16 | 4250 nM | COc1ccc(Nc2ccc3c(CN4CCCC4)cn(S(=O)(=O)c4cccc(C(F)(F)F)c4)c3c2)c(Cl)n1 [Example 318, N-(2-chloro-6-methoxypyridin-3-yl)-3-(pyrrolidin-1-ylmethyl)-1-((3-(trifluoromethyl)phenyl)sulfonyl)-1H-indol-6-amine]
17 | 8440 nM | CNCc1cn(S(=O)(=O)c2cccc(OC(F)F)c2)c2cc(-c3ccnc(F)c3)ccc12 [Example 262, 1-(1-((3-(difluoromethoxy)phenyl)sulfonyl)-6-(2-fluoropyridin-4-yl)-1H-indol-3-yl)-N-methylmethanamine hydrochloride]
18 | 1530 nM | CNCc1cn(S(=O)(=O)c2ccccc2F)c2cc(Cc3ccc(C)cc3Cl)ccc12 [Example 300, 1-(6-(2-chloro-4-methylbenzyl)-1-((2-fluorophenyl)sulfonyl)-1H-indol-3-yl)-N-methylmethanamine]
19 | 830 nM | CNCc1cn(S(=O)(=O)c2cccc(F)c2)c2cc(Nc3ccc(C)cc3Cl)ncc12 [Example 353, N-(2-chloro-4-methylphenyl)-1-((3-fluorophenyl)sulfonyl)-3-((methylamino)methyl)-1H-pyrrolo[3,2-c]pyridin-6-amine hydrochloride]
20 | 480 nM | CNCc1cn(S(=O)(=O)c2cccc(F)c2)c2cc(Nc3ccc(F)cc3Cl)ncc12 [Example 355, N-(2-chloro-4-fluorophenyl)-1-((3-fluorophenyl)sulfonyl)-3-((methylamino)methyl)-1H-pyrrolo[3,2-c]pyridin-6-amine hydrochloride]
21 | 800 nM | CNCc1cn(S(=O)(=O)c2cccc(F)c2)c2cc(Nc3ccc(F)cc3C)ncc12 [Example 354, N-(4-fluoro-2-methylphenyl)-1-((3-fluorophenyl)sulfonyl)-3-((methylamino)methyl)-1H-pyrrolo[3,2-c]pyridin-6-amine hydrochloride]
22 | 5000 nM | COc1cc(OC(F)(F)F)ccc1Nc1ccc2c(C(=O)N(C)C)cn(S(=O)(=O)c3cccnc3)c2c1 [Example 328, 6-((2-methoxy-4-(trifluoromethoxy)phenyl)amino)-N,N-dimethyl-1-(pyridin-3-ylsulfonyl)-1H-indol-3-carboxamide]
23 | 680 nM | CNCc1cn(S(=O)(=O)c2ccc(F)cc2)c2cc(Cc3ccc(C)cc3Cl)ccc12 [Example 306]
24 | 550 nM | CNCc1cn(S(=O)(=O)c2cccc(Cl)c2)c2cc(Cc3ccc(OC)nc3Cl)ccc12 [Example 293, 1-(6-((2-chloro-6-methoxypyridin-3-yl)methyl)-1-((3-chlorophenyl)sulfonyl)-1H-indol-3-yl)-N-methylmethanamine]
25 | 1760 nM | CNCc1cn(S(=O)(=O)c2cccnc2)c2cc(Cc3ccc(Cl)cc3C(F)(F)F)ccc12 [Example 275, 1-(6-(4-chloro-2-(trifluoromethyl)benzyl)-1-(pyridin-3-ylsulfonyl)-1H-indol-3-yl)-N-methylmethanamine hydrochloride]
